Data reported in patent publication US20090081636A1, “Pharmaceutical compositions for and methods of inhibiting HCV replication” (priority 2005, published 2009).
“Also recorded” adds a separate entry of the source.

How the values were obtained:
synthetic NS4A [1] = molecular target: T1, synthetic NS4A (Hepatitis C virus genotype 1b, UniProt Q9WMX2); assay: Competition assay for NS4A binding against [3H] labeled azidoacylthiourea; parameters: species or system HCV
T1 construct: The full length of NS4A (54 amino acids) is synthesized; made in house
T1 sequence (Q9WMX2 1658-1711): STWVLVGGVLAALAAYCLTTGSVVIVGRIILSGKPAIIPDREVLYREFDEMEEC
Experimental: (§1) To determine whether acylthiourea compounds bind to NS4A, a photo-affinity labeling is carried out, in which an [^3H] labeled photo-reactive azidoacylthiourea, 1-(5-Azido-benzofuran-2-carbonyl)-3-(4-pentyloxy-3-trifluoromethyl-phenyl)-thiourea, is mixed with synthetic NS4A at various molar ratios. The mixture is incubated at 31° C. for one hour. Samples are then illuminated by a UV lamp (254 nm wavelength) at room temperature for 7 minutes. After denaturing with equal volume of Laemmli buffer containing 5% mercaptoethanol at 99° C. for 5 minutes, samples are separated on a 10-20% SDS-PAGE. After electrophoresis, the gel is fixed with 30% methanol-10% acetic acid overnight. Then the gel is treated with 3H enhancer solution (PerkinElmer) at room temperature for one hour, and subsequently with water for 30 minutes, and dried under vacuum.
To study the binding specificity of [^3H] labeled 1-(5-Azido-benzofuran-2-carbonyl)-3-(4-pentyloxy-3-trifluoromethyl-phenyl)-thiourea to synthetic NS4A, several structurally related compounds are used in the following competition assays. Non-labeled 1-(5-Azido-benzofuran-2-carbonyl)-3-(4-pentyloxy-3-trifluoromethyl-phenyl)-thiourea shares the same structure with [^3H] labeled 1-(5-Azido-benzofuran-2-carbonyl)-3-(4-pentyloxy-3-trifluoromethyl-phenyl)-thiourea. 1-(5-Azido-benzofuran-2-carbonyl)-3-(4-pentyloxy-3-trifluoromethyl-phenyl)-urea differs in structure from 1-(5-Azido-benzofuran-2-carbonyl)-3-(4-pentyloxy-3-trifluoromethyl-phenyl)-thiourea in that 1-(5-Azido-benzofuran-2-carbonyl)-3-(4-pentyloxy-3-trifluoromethyl-phenyl)-urea has a carbonyl group where 1-(5-Azido-benzofuran-2-carbonyl)-3-(4-pentyloxy-3-trifluoromethyl-phenyl)-thiourea has a thiocarbonyl group. […]

HCV replicon cells = assay: HCV replicon assay; assay type: cell-based
Experimental: Cells expressing the HCV replicon are seeded onto the internal wells of 96-well plates at a density of 7,000 cells per well. One day later, different dilutions of the test compounds are added to corresponding wells and the plates are incubated in a CO2 incubator for 72 hours. After treatment, the cells are lysed with 70 μl RLN buffer per well (50 mM Tris-HCl [pH8.0], 140 mM NaCl, 1.5 mM MgCl2, 0.5% Nonidet P-40, 1,000 units/mL RNAsin and 1 mM […]). The total lysate is transferred to a new U bottom 96-well plate and nuclei and cell debris are pelleted with a brief spin (300×g for 3 minutes). 50 μl of supernatant is removed from the well and loaded directly onto manifold wells equipped with Nylon membranes. HCV RNA is hybridized at 58° C. overnight using a labeled HCV RNA probe containing a negative strand sequence complement to the NS5B region. Hybridization buffer is composed of 50% formamide, 5×SSPE, 1% SDS, 5×Denhart's solution, and sheared denatured salmon sperm DNA. Following hybridization, the membrane is washed with washing buffer (0.1×SSC, 0.1% SDS) at room temperature for two hours, then at 65° C. for 30 minutes. The radioactivity in each well is counted on a Microbeta counter and EC50 is calculated based on cpm.
Alternatively, HCV replicon cells are trypsinized for 5-10 minutes in a CO2 incubator. Then, cells are placed in a 15 mL tube, and are spun at 1000 rpm for 4 minutes and trypsin solution is removed. Cell pellets are washed once with PBS and spun 4 minutes at 1000 rpm.
Trypsinization and wash steps, supra, are conducted efficiently to minimize cell death. PBS is removed and cells are resuspended in 4 mL fresh PBS and cells are seeded at a dilution of 5000 cells per well to 96 well plates. Test compounds are diluted in 96 well U bottom plates with DMEM (high glucose) (BRL, Catalog #21063) supplemented with 10% FBS, L-glutamine, and non-essential amino acid. 100 uL of test compound is loaded into each well. […]
100 uL of development solution (TMB one-step substrate system) is added and plates are developed in the dark for 10 to 30 minutes. […] OD450 is measured.

synthetic NS4A [2] = molecular target: T1, synthetic NS4A; assay: Photo-affinity labeling of synthetic NS4A; assay type: binding, HCV; conditions: [3H] labeled compound, UV 254 nm photolysis, SDS-PAGE
Experimental: Experiments are undertaken to investigate the affinity and binding specificity of acylthiourea compounds to NS4A. The full length of NS4A (54 amino acids) is synthesized, and characterized with mass spectral analysis and HPLC profiling. An NS4A sample is then dissolved in 100% dimethylsulphoxide (DMSO) at a concentration of 2 μg/μl, and subjected to a 10-20% SDS-PAGE with a reducing reagent. A 6 kDa protein band, consistent with the size of NS4A, is detected in the gel following a Coomassie blue staining. The NS4A identity of this band is further confirmed by a Western blot with monoclonal anti-NS4A antibody.
as §1, with “Then the gel is treated with 3H enhancer solution (PerkinElmer) at room temperature for one hour, and subsequently with water for 30 minutes, and dried under vacuum.” left out

NS3 protease domain = NS3 protease domain (Hepatitis C virus genotype 1b, UniProt Q9WMX2); assay: Photo-affinity labeling binding assay, NS3 protease domain; parameters: species or system HCV; conditions: 3.3 μM protein
Sequence of NS3 protease domain (Q9WMX2 1027-1208): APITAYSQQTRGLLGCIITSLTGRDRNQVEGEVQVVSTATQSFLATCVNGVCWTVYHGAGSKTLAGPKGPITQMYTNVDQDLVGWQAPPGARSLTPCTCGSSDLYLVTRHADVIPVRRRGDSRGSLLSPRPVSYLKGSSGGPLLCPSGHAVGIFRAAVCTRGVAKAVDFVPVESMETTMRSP
Experimental: as §1
(§2) One band corresponds to NS4A monomer, which is also detectable with Coomassie blue staining (FIG. 3). […] Without being bound by any particular theory, it is believed that this band may be composed largely of polymer form or aggregates of NS4A. At the same time, full-length NS3 and NS3 protease domain is included in this binding assay.

full-length NS3 = full-length NS3 (Hepatitis C virus genotype 1b, UniProt Q9WMX2); assay: Photo-affinity labeling binding assay, full-length NS3; parameters: species or system HCV; conditions: 3.3 μM protein
Sequence of full-length NS3 (Q9WMX2 1027-1657): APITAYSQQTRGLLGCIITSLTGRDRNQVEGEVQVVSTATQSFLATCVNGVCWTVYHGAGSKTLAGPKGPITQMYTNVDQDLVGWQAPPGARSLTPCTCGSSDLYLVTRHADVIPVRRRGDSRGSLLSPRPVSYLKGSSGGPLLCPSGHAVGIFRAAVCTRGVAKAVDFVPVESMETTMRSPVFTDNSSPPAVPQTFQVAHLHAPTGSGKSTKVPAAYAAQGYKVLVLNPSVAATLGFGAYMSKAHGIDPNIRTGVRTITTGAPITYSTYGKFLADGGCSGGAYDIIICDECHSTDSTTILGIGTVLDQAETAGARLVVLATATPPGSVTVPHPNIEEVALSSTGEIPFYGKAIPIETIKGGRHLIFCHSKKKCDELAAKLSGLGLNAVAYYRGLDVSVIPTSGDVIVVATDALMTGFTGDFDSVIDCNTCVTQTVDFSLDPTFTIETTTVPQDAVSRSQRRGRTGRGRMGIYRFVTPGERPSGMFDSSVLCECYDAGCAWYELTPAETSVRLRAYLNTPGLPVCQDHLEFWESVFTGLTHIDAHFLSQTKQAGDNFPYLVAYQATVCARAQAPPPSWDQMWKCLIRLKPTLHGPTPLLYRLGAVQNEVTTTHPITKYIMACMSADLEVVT
Experimental: as §1, §2

SMILES	competition with [3H] labeled azidoacylthiourea for NS4A binding (synthetic NS4A [1])	anti-HCV activity in replicon cells (HCV replicon cells)	binding to synthetic NS4A (synthetic NS4A [2])	binding to NS3 protease domain (NS3 protease domain)	binding to full-length NS3 (full-length NS3)
CCCCCOc1ccc(NC(=S)NC(=O)c2cccnc2)cc1C(F)(F)F [1-(4-Pentyloxy-3-trifluoromethyl-phenyl)-3-(pyridine-3-carbonyl)-thiourea]	effectively compete	exhibit anti-HCV activities	–	–	–
CCCCCOc1ccc(NC(=S)NC(=O)c2cc3cc(N=[N+]=[N-])ccc3o2)cc1C(F)(F)F [1-(5-Azido-benzofuran-2-carbonyl)-3-(4-pentyloxy-3-trifluoromethyl-phenyl)-thiourea]	–	–	binds to synthetic NS4A; also recorded: two radioactive bands	weak binding signals	weak binding signals
CCCCCOc1ccc(NC(=O)NC(=O)c2cc3cc(N=[N+]=[N-])ccc3o2)cc1C(F)(F)F [1-(5-Azido-benzofuran-2-carbonyl)-3-(4-pentyloxy-3-trifluoromethyl-phenyl)-urea]	does not compete; also recorded: abolish this competition capacity	does not exhibit any anti-HCV activity	–	–	–
CCCCCOc1ccc(NC(=S)NC(=O)c2cc3ccccc3o2)cc1C(F)(F)F [1-(Benzofuran-2-carbonyl)-3-(4-pentyloxy-3-trifluoromethyl-phenyl)-thiourea]	effectively compete	exhibit anti-HCV activities	–	–	–
